What was measured:
[1] = target: PROTODERMAL FACTOR2 (PDF2), pdf2(START)^L467P (Arabidopsis thaliana, UniProt Q93V99, L467P); assay: microscale thermophoresis with […] DOPC/LysoPC […] liposomes; format: binding
[2] = target: T1, PROTODERMAL FACTOR2 (PDF2) (Arabidopsis thaliana, UniProt Q93V99); assay: as above; format: binding
T1 sequence (Q93V99 244-476 limits assumed): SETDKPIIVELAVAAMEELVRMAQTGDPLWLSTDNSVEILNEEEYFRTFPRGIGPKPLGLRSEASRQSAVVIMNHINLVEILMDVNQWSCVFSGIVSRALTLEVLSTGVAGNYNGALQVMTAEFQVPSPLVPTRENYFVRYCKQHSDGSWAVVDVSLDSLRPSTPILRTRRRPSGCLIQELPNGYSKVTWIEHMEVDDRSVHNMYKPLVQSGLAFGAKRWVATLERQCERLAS

Chain of PROTODERMAL FACTOR2 (PDF2), pdf2(START)^L467P (Q93V99 244-476 L467P): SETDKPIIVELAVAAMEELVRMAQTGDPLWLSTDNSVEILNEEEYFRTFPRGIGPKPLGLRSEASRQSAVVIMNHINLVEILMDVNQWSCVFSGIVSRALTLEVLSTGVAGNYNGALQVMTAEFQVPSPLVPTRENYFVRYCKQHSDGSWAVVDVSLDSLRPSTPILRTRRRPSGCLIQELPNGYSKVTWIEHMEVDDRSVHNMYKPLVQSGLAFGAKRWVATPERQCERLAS

Substance: LysoPC 18:1
- Kd [1]: 200 µM
- Kd [2]: 17 µM

Reference: paper PMC11486602 (The New phytologist, 2024)
